Source: PMC3537624, “Functional Characterization of the Short Neuropeptide F Receptor in the Desert Locust, Schistocerca gregaria” (PLoS ONE, 2013)
“Also recorded” adds a separate entry of the source. Where a SMILES comes first, the peptide text is derived from it.

Key:
[1] = system: Schgr-sNPFR; experiment: Calcium assay, aequorin bioluminescence in CHO-WTA11-Schgr-sNPFR cells (promiscuous Gα16); type: cell-based, Schistocerca gregaria; conditions: for EC50: CHO-WTA11 cells with Gα16, aequorin/coelenterazine h luminescence, 30 s read, ± (95% confidence interval), three independent measurements in duplicate
Description: (§1) Three cell lines were used in this study. General receptor studies were performed in Chinese Hamster Ovary (CHO)-WTA11 cells, a clone of CHO cells stably coexpressing the promiscuous Gα16 and apoaequorin. To determine the mode of downstream signalling, we used either CHO-PAM28 cells, a clone of CHO cells expressing apoaequorin but not the promiscuous Gα16, or Human Embryonic Kidney (HEK) 293T cells, expressing neither Gα16 nor apoaequorin. All cell lines used in this study were provided by Prof. Dr. M. Parmentier and Dr. M. Dethreux (Université Libre de Bruxelles) and Euroscreen S.A., Belgium.
(§2) The cells were cultured in monolayer, in Dulbecco’s Modified Eagle Medium Nutrient Mixture F12-Ham (DMEM/F12, Invitrogen) containing 10% fetal calf serum (Invitrogen), 100 IU/ml penicillin/streptomycin (Invitrogen). For the CHO-WTA11 cells, 250 µg/ml Zeocin™ (Invitrogen) was added to the medium, while to the medium of CHO-PAM28 cells, 5 µg/ml Puromycin (Invitrogen) was added. The cells were grown at 37°C, with a constant supply of 5% CO2 and split every 3 days.
Transfections with either Schgr-sNPFR/pcDNA3.1D or empty pcDNA3.1D vector were performed in T75 flasks at ca. 60% confluency. […]
In the calcium-assays, CHO-WTA11 or CHO-PAM28 cells expressing the Schgr-sNPFR were detached two days after transfection, counted using the NucleoCounter® NC-100™ (Chemometec), and resuspended in DMEM/BSA (DMEM/F12, 10 mM HEPES, 0.1% bovine serum albumin) at a concentration of 5×10^5 cells/ml. […]
After incubation, the cell suspension was injected in wells containing a peptide solution, dissolved in 50 µl BSA medium. […] Light emission was monitored using a Mithras LB 940 Microplate Reader (Berthold technologies).
(§3) Data generated in these experiments were analysed using GraphPad Prism 5 (GraphPad Software).
As putative ligands for the cloned Schistocerca gregaria sNPF receptor, Schgr-sNPF (SNRSPSLRLRFa), Schgr-sNPF^4−11 (SPSLRLRFa) and Schgr-trNPF (YSQVARPRFa) were tested. […] For each of these peptides, the dose-dependent activation of the Schgr-sNPFR was studied in CHO-WTA11 cells and EC50 values were calculated.

[2] = system: Schgr-sNPFR; experiment: cAMP assay, CRE-luciferase bioluminescence in HEK-293T-Schgr-sNPFR cells; type: cell-based, Schistocerca gregaria; conditions: HEK 293T cells; for IC50: 200 µM IBMX + NKH 477, 3 h at 37°C, three independent measurements in duplicate, read-out: IC50 (inhibition of CRE-luciferase reporter expression); for inhibition of the reporter expression (result in words): CRE-luciferase, 200 µM IBMX + NKH 477
Description: as §1, §2
(§4) Transfections with either Schgr-sNPFR/pcDNA3.1D or empty pcDNA3.1D vector were performed in T75 flasks at ca. 60% confluency. Transfection reagent was prepared by combining 2,5 ml of DMEM/F12, 5 µg of the plasmid DNA and 12.5 µl of PLUS™ Reagent (Invitrogen). After storing the medium at room temperature for 5 minutes, 30 µl Lipofectamine™ LTX (Invitrogen) was added and the transfection medium was added dropwise into 3 ml of culture medium after 30 minutes incubation at room temperature. HEK 293T cells were cotransfected with a reporter construct, consisting of a luciferase gene situated downstream of a cyclic AMP (cAMP) response element (CRE) and promoter.
HEK 293T cells, cotransfected with the Schgr-sNPFR/pcDNA3.1 vector and the CRE-luciferase construct, were detached two days after transfection, centrifuged and resuspended to a concentration of 10^6 cells/ml in DMEM/F12 containing 200 µM 3-isobutyl-1-methylxanthine (IBMX; Sigma-Aldrich). Fifty µl of this suspension was introduced into in each well of a 96-well-plate. When studying stimulatory effects, peptides were dissolved in DMEM/F12 containing 200 µM IBMX. When studying inhibitory effects, these peptides were dissoved in DMEM/F12 supplemented with 200 µM IBMX and 20 µM NKH 477 (a water-soluble analogue of forskolin; Sigma-Aldrich). […] Light emission, resulting from the luciferase activity, was measured for 5 s/well using the Mithras LB 940 Microplate Reader.
as §3
The possible effect of receptor activation on intracellular cyclic AMP (cAMP) production was analysed in HEK 293T cells that were cotransfected with a CRE-luciferase reporter construct.

[3] = system: Schgr-sNPFR; experiment: Calcium assay, aequorin bioluminescence in CHO-PAM28-Schgr-sNPFR cells (no Gα16); type: cell-based, Schistocerca gregaria; conditions: for EC50: CHO-PAM28 cells without Gα16, aequorin bioluminescence, three independent measurements in duplicate; for maximum response (aequorin bioluminescence): Schgr-sNPF and Schgr-sNPF^4−11 compared with each other
Description: as §1, §2, §4
In the calcium-assays, CHO-WTA11 or CHO-PAM28 cells expressing the Schgr-sNPFR were detached two days after transfection, counted using the NucleoCounter® NC-100™ (Chemometec), and resuspended in DMEM/BSA (DMEM/F12, 10 mM HEPES, 0.1% bovine serum albumin) at a concentration of 5×10^5 cells/ml. Cells where then shielded from light and incubated for 4 h with 5 µM coelenterazine h (Invitrogen), allowing the aequorin holoenzyme to be reconstituted.
After incubation, the cell suspension was injected in wells containing a peptide solution, dissolved in 50 µl BSA medium. After 30 s, 50 µl of 0.1% Triton X-100 was injected, lysing the cells and thus serving as an internal reference. Wells containing no peptide but DMEM/BSA were used as a negative control while wells containing 1 µM ATP were used as a positive control. Light emission was monitored using a Mithras LB 940 Microplate Reader (Berthold technologies).
as §3
These two peptides were then further studied with respect to their mode of intracellular signalling. Cell based assays were performed using a CHO-PAM28 cell line, expressing apoaequorin, allowing the detection of increases in the intracellular concentration of calcium ions. […] The calculated EC50 values were both in the nanomolar range.

[4] = system: adult locusts; experiment: Peptide injection feeding assay (food uptake); type: in vivo, Schistocerca gregaria; conditions: for reduction of food uptake: 2 µl of 100 µg/ml injected dorsally, cabbage for one hour, vs saline, n = 20; for effect on food uptake (result in words): normalized to body mass, mean, n = 20, ANOVA with Tukey
Description: The desert locusts used in this study were all gregarious adult animals. They were reared under crowded conditions at a constant temperature (32±1°C) and photoperiod (14 h). The locusts were kept at high density (>200 locusts per cage) and fed daily with cabbage and dry oat flakes. In an effort to normalize feeding responses, locusts used in feeding experiments were placed in separate cages and placed on a controlled dietary regimen one week prior to the assay. Locusts were fed for two hours each day (9 h–10 h, 16 h–17 h).
At 9 AM, 2 µl of a 100 µg/ml peptide solution (experimental condition) or saline solution (negative control) was injected dorsally between the first and second abdominal segments using a 710 RN injector (Hamilton). Pieces of cabbage were weighed in advance and presented to the locusts for one hour, after which all animals had stopped feeding. In parallel, similar pieces of cabbage were put in empty cages during the period of the experiment. The relative weight loss of these pieces was used to estimate the effect of evaporation All cabbage leafs were weighed after the feeding assay, total food uptake was calculated and corrected for the weight that was lost by evaporation. The results were analysed using GraphPad Prism 5 (GraphPad Software).

Molecule	EC50 [1] [nM]	IC50 [2] [nM]	inhibition of the reporter expression (result in words) [2]	increase of aequorin bioluminescence ([3]; CHO-PAM28 cells)	EC50 [3] [nM]	maximum response (aequorin bioluminescence) ([3]; CHO-PAM28 cells)	reduction of food uptake [4] [%]	effect on food uptake (result in words) ([4]; ** p<0.01, *** p<0.001)	effect on food uptake (result in words) ([4]; ** p<0.01, *** p<0.001, listed as sNPF^4−11)	agonist character with respect to calcium response ([3]; CHO-PAM28 cells, maximum response lower than that of Schgr-sNPF^4−11)	effect on food uptake (result in words) ([4]; ** p<0.01, *** p<0.001, listed as sNPF)	activation of the receptor (result in words) ([1]; CHO-WTA11 cells, aequorin bioluminescence)
CC(C)C[C@H](NC(=O)[C@H](CCCNC(=N)N)NC(=O)[C@H](CC(C)C)NC(=O)[C@H](CO)NC(=O)[C@@H]1CCCN1C(=O)[C@@H](N)CO)C(=O)N[C@@H](CCCNC(=N)N)C(=O)N[C@@H](Cc1ccccc1)C(N)=O [Schgr-sNPF^4−11] (H-SPSLRLRF-NH2)	5.56 ± 1.8	0.0955 ± 0.0323	highly effective	dose-dependent increase of aequorin bioluminescence	32.2 ± 18.2	markedly higher than those obtained with Schgr-sNPF	37	significant decrease of food uptake	significant decrease in food uptake	–	–	–
SNRSPSLRLRFa [Schgr-sNPF, Schistocerca gregaria short neuropeptide F, […]a]	2.05 ± 0.63	0.0763 ± 0.0261	highly effective	dose-dependent increase of aequorin bioluminescence	3.28 ± 2.2	markedly lower than that of Schgr-sNPF^4−11	30	significant decrease of food uptake	–	partial agonist	significant decrease in food uptake	–
YSQVARPRFa [Schgr-trNPF, truncated form of Schgr-neuropeptide F, …a]	–	–	–	–	–	–	–	–	–	–	–	No dose-dependent response was observed; also recorded: not responsive
